Source: patent US9963463B2, “Urea-substituted indanes as P38 map kinase inhibitors” (TORRENT PHARMACEUTICALS LIMITED, priority 2014, dated 2018)

Tests used:
[1] = molecular target: T1, purified recombinant human p38 alpha MAPK (Homo sapiens, UniProt Q16539); assay: Inhibition of p38 alpha MAPK activity, TR-FRET kinase assay; type: biochemical; conditions: Concentration 1 μM; read-out: P38α Inhibition
T1 construct: purchased Millipore, USA
How it was run: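 Recombinant human p38α preincubated 15 min at RT with compound (0.5–1.0% DMSO), then 30 nM biotinylated GST-ATF2 and 100 μM ATP added for 60 min at RT. Stopped with EDTA; Eu-anti-phospho-ATF2 and APC-streptavidin detection, 60 min. % inhibition from 665/615 nm TR-FRET ratio.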

[2] = tested on: cigarette smoke induced inflammatory cell accumulation in BAL Fluid; assay: Acute guinea pig model of airway inflammation (tobacco smoke), BAL neutrophils; type: in vivo, Guinea pigs; conditions: acute TS model, 6 mg/ml, aerosol exposure 75 minutes
Text: Observation: It was observed that compound of present invention was found effective in inhibition of neutophil influx, an index of pulmonary inflammation. […] B. (I) Efficacy Studies in Acute Guinea Pig Model of Airway Inflammation
Guinea pigs were exposed to tobacco smoke (TS) in an acrylic chamber. Animals were exposed to TS from 5, 10, 15 cigarettes on day 1, day 2, day 3 respectively. From day 4 onwards till day 11, animals were exposed to TS from 15 cigarettes per day. […]
Lung delivery of test compound was achieved by whole body aerosol exposure for 75 minutes in a chamber. […] A total quantity of 7.0 ml of either vehicle or test compound formulation (suspension formulation with D90<5μ, with Malvern Mastersizer®) was nebulized in chambers to respective groups over 75 mins period. […]
(§1) Lavage fluid was separated from cells by centrifugation and supernatant separated. […] Cells in aliquot were stained using Turk solution and total cell numbers were calculated by counting Turk stained aliquot under microscope using haemocytometer.
The residual cell suspension was resuspended and slides prepared using cyto centrifuge technique (Cytospin 4, Thermo Shandon). […] Up to 300 cells were counted and differentiated using standard morphometric techniques under light microscopy. All results are presented at individual data for each animal and mean value calculated for each group. […]

[3] = tested on: BALF fluid inflammatory cell influx and lung function; assay: Chronic model of COPD in guinea pigs (tobacco smoke and LPS, 18 weeks); type: in vivo; conditions: guinea pig, chronic TS/LPS COPD model, 3 mg/ml, aerosol exposure 50 minutes
Text: Observation: It was observed that compound of present invention was found effective in inhibition of neutrophil influx, an index of pulmonary inflammation in guinea pig model of airway inflammation. […] (II) Efficacy Studies in Chronic Model of COPD in Guinea Pigs.
Guinea pigs were exposed to tobacco smoke (TS) and Lipopolysaccharide (LPS) in an acrylic chamber. Exposure to TS and LPS is given in following manner in a week for a total of 18 weeks.
Lung delivery of test material was achieved by whole body aerosol exposure for 50 minutes in a chamber. Guinea pig were divided in different dose groups and exposed to either vehicle or compound no 43 (3 mg/ml). A total quantity of 7.0 ml of either vehicle or compound no 43 (suspension formulation with D90<5μ, with Malvern Mastersizer®) was nebulized in chambers to respective groups over 50 mins period. Compound no 43 or vehicle was administered 2 hr prior to TS/LPS exposure once daily from week 9 to week 18. Control animals were exposed to room air instead of TS and PBS instead of LPS. Lung function and bronchoalveolar lavage (BAL) for each animal was performed 24 hr post last TS exposure. […]
as §1
The residual cell suspension was resuspended and slides prepared using cyto centrifuge technique (Cytospin 4, Thermo Shandon). […] Up to 300 cells were counted and differentiated using standard morphometric techniques under light microscopy.
All results are presented at individual data for each animal and mean value calculated for each group. Percentage inhibition for the neutrophil was calculated for compound no 43 treatment group against vehicle group. […]

[4] = tested on: cigarette smoke induced Neutrophil accumulation in BAL Fluid; assay: Acute mouse model of airway inflammation (tobacco smoke), BAL neutrophils; type: in vivo; conditions: mice, aerosol exposure 25 minutes; for Neutrophil (*10^3 cells/animal): BAL fluid, Mean ± SEM; for % Inhibition: neutrophil vs vehicle group
Text: In vivo efficacy evaluation of compounds in animal model of airway inflammation: The tobacco smoke induced airway inflammation model is used for in-vivo efficacy of compound. Many investigators have used acute tobacco smoke (TS) exposure in rodents as models of airway inflammation for quick screening of anti-inflammatory therapies (J Pharmacol Exp Ther. 2008; 324(3):921-9; J Pharmacol Exp Ther. 2010; 332(3):764-75; Journal of Inflammation 2013, 10(Suppl 1):31 and Eur Respir J Suppl 2006; 663s:3850).
A: Efficacy Studies in Acute Mouse Model of Airway Inflammation
Mice were exposed to tobacco smoke (TS) in an acrylic chamber. Animals were exposed to TS from 8, 12, 16 cigarettes on day 1, day 2, day 3 respectively. From day 4 onwards till day 11, animals were exposed to TS from 20 cigarettes per day. Like human COPD associated inflammation, acute exposure of mice to TS induced significant inflammatory cell, predominantly neutrophil recruitment to lungs as compared to air exposed control mice (BALF neutrophil levels, nil in air control group vs 178±29.1*10^3 cells/animal in smoke exposed vehicle group).
Lung delivery of test compound was achieved by whole body aerosol exposure for 25 minutes in a chamber. Mice were divided in different dose groups and exposed in a chamber for 25 minutes with vehicle or Compound 12 (0.3 mg/ml) or Compound 12 (3 mg/ml). A total quantity of 3.5 ml of either vehicle or test compound formulation was nebulized in a chambers to respective groups over 25 mins period. Test compounds were administered 2 hr prior to TS exposure from day 6 to day 11. Bronchoalveolar lavage (BAL) was performed 24 hr post last TS exposure.
Trachea of animal was cannulated using catheter. Phosphate Buffer Saline (PBS) was used as lavage fluid. A volume of 0.5 ml was gently instilled and withdrawn and collected in microcentrifuge tube placed on ice. This procedure was repeated further 2 times.
Lavage fluid was separated from cells by centrifugation and supernatant separated. The cell pallet was resuspended in known volume of PBS. Cells in aliquot were stained using Turk solution and total cell numbers were calculated by counting Turk stained aliquot under microscope using haemocytometer.
The residual cell suspension was resuspended and slides prepared using cyto centrifuge technique (Cytospin 4, Thermo Shandon). The slides were then fixed with methanol, air dried and stained with May Grunwald Giemsa stain. Up to 300 cells were counted and differentiated using standard morphometric techniques under light microscopy.
All results are presented at individual data for each animal and mean value calculated for each group. Percentage inhibition for the neutrophil was calculated for Compound 12 treatment group against vehicle group. Results are summarized herein below: […]

T1 sequence (Q16539 whole entry): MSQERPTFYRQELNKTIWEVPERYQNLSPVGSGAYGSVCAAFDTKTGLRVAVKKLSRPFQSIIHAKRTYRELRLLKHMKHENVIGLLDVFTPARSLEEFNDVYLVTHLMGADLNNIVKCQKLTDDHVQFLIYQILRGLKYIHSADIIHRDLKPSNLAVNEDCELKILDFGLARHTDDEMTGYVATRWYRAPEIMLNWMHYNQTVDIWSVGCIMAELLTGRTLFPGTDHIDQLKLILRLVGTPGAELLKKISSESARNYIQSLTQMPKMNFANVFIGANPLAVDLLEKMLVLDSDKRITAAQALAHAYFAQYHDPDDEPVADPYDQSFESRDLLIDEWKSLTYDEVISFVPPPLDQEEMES

| SMILES | inhibition at 1 µM [1] [%] | Effect on inflammatory cell influx Neutrophil (*10^6cells) ([2]; BAL fluid, Mean ± SEM) | Effect on inflammatory cell influx % inhib^n ([2]; neutrophil vs vehicle group) [%] | Neutrophil (*10^6cells) ([3]; BALF, once daily week 9 to 18, Mean ± SEM) | lung function parameters (FRC, RV, IC/TLC ratio, RV/TLC ratio) ([3]; FIGS. 1A, 1B, 2A, 2B) | % inhib^n ([3]; neutrophil vs vehicle group) [%] | Neutrophil (*10^3 cells/animal) ([4]; formulation strength 0.3 mg/ml) | Neutrophil (*10^3 cells/animal) ([4]; formulation strength 3 mg/ml) | % Inhibition ([4]; formulation strength 0.3 mg/ml) [%] | % Inhibition ([4]; formulation strength 3 mg/ml) [%] |
| --- | --- | --- | --- | --- | --- | --- | --- | --- | --- | --- |
| CCS(=O)(=O)Nc1cc(C(C)(C)C)cc(NC(=O)Nc2ccc(OCCN3CCN(CC4CC4)C(=O)C3)c3c2CCC3)c1OC [Compound 43, N-(5-tert-butyl-3-{[(7-{2-[4-(cyclopropylmethyl)-3-oxopiperazin-1-yl]ethoxy}-2,3-dihydro-1H-inden-4-yl)carbamoyl]amino}-2-methoxyphenyl)ethanesulfonamide] | 80 to 100 | 0.8 ± 0.20 *10^6cells | 57 | 4.0 ± 0.70 *10^6cells | significantly improves lung function aspects | 32 | – | – | – | – |
| Cc1ccc(-n2nc(C(C)(C)C)cc2NC(=O)Nc2ccc(OCCN3CCN(CC4CC4)C(=O)C3)c3c2CCC3)cc1 [Compound 12, 1-[3-tert-butyl-1-(4-methylphenyl)-1H-pyrazol-5-yl]-3-(7-{2-[4-(cyclopropylmethyl)-3-oxopiperazin-1-yl]ethoxy}-2,3-dihydro-1H-inden-4-yl)urea] | 80 to 100 | – | – | – | – | – | 107 ± 18.5 *10^3 cells/animal | 69.6 ± 11.1 *10^3 cells/animal | 40 | 61 |
